# Test results from PMC6792352, “Limited Chemical Structural Diversity Found to Modulate Thyroid Hormone Receptor in the Tox21 Chemical Library” (Environmental Health Perspectives, 2019).
# Assay: in vitro
# Conditions: rat, gh3-tre-luc cells, AC50 (uM) modified / 1000
row,SMILES,CC50 at 24 h
1,CCC[Si](OC)(OC)OC [Trimethoxypropylsilane],> 90 µM
2,CC(C)C[C@@H]1NC(=O)[C@H](CCCN)NC(=O)[C@H](C(C)C)NC(=O)[C@H](Cc2ccc(O)cc2)N[C@@H](CCC(=O)O)C(=O)N[C@@H](CC(N)=O)C(=O)[C@@H](Cc2ccccc2)NC(=O)[C@H](Cc2ccccc2)NC(=O)[C@@H]2CCCN2C(=O)[C@@H](Cc2ccccc2)NC1=O [Tyrothricin],1.25 µM
3,COc1cc(CNC(=O)CCCC/C=C/C(C)C)ccc1O [Capsaicin],> 90 µM
4,CC(=O)OC/C=C/c1ccccc1 [3-Phenylprop-2-en-1-yl acetate],> 90 µM
5,"CCCCCC[C@@H](O)C/C=C\CCCCCCCC(=O)O [(9Z,12R)-12-Hydroxyoctadec-9-enoic acid]",80.8 µM
6,COCC(C)N (stereo not drawn) [1-Methoxy-2-propylamine],> 90 µM
7,CCCCCCCCCCOC(=O)c1ccccc1C(=O)OCCCCCCCC [Octyl decyl phthalate],> 90 µM
8,CCCCc1ccc2[nH]c(NC(=O)OC)nc2c1 [Parbendazole],0.0667 µM
9,O=C1c2ccccc2C(=O)C1c1nc2ccccc2c(Br)c1O [C.I. Disperse Yellow 64],> 90 µM
10,CCCN1C[C@H](CSC)C[C@@H]2c3cccc4[nH]cc(c34)C[C@H]21 [Pergolide methanesulfonate],> 50 µM
11,Brc1nc2ccccc2s1 [2-Bromobenzothiazole],> 90 µM
12,O=C(O)COc1ccc(Cl)cc1 [4-Chlorophenoxyacetic acid],> 90 µM
13,Fc1ccc([C@@H]2CCNC[C@H]2COc2ccc3c(c2)OCO3)cc1 [Paroxetine],10.7 µM
14,"Nc1cc(Cl)cc(Cl)c1 [3,5-Dichloroaniline]",> 90 µM
15,CCC1(C2=NCCN2)Cc2ccccc2O1 (stereo not drawn) [Efaroxan],> 50 µM
16,"CCCCCCCC(=O)N(C)C [N,N-Dimethyloctanamide]",> 90 µM
17,C#CCOc1ccc2c(C)cc(=O)oc2c1 [Giparmen],> 50 µM
18,C[C@]12CCC(=O)C=C1[C@@H]1C[C@@H]1[C@H]1[C@@H]3[C@@H]4C[C@@H]4[C@@]4(CCC(=O)O4)[C@@]3(C)CC[C@@H]12 [Drospirenone],> 50 µM
19,COc1ccc(-c2cc(=O)c3c(O)cc(O[C@@H]4O[C@H](CO[C@@H]5O[C@@H](C)[C@H](O)[C@@H](O)[C@H]5O)[C@@H](O)[C@H](O)[C@H]4O)cc3o2)cc1O [Diosmin],> 50 µM
20,CC(=O)c1c(C)c([N+](=O)[O-])c(C(C)(C)C)c([N+](=O)[O-])c1C [Musk ketone],80.9 µM
21,Cc1cc(Nc2ccccc2C(=O)O)ccc1Cl [2-[(4-Chloro-3-methylphenyl)amino]benzoic acid],> 50 µM
22,CCOC(=O)NCCOc1ccc(Oc2ccccc2)cc1 [Fenoxycarb],> 90 µM
23,CCCCCCCCCCCCSC [1-(Methylsulfanyl)dodecane],> 90 µM
24,CC(CCC(=O)O)(c1ccc(O)cc1)c1ccc(O)cc1 [Diphenolic acid],> 90 µM
25,CC(=O)CCc1ccc(O)cc1 [4-(4-Hydroxyphenyl)butan-2-one],> 90 µM
26,Nc1cccc(S(=O)(=O)O)c1 [3-Aminobenzenesulfonic acid],> 90 µM

# Same assay, conditions: rat, gh3-tre-luc cells, AC50 (uM) modified / 1000, Tox21_110001=Tox21_111056; viability, 1 nM T3 present, 24 h
row,SMILES,CC50 at 24 h
1,C[C@]12CCC(=O)C[C@@H]1CC[C@@H]1[C@@H]2CC[C@]2(C)[C@@H](O)CC[C@@H]12 [5alpha-Dihydrotestosterone],> 50 µM

# Same assay, conditions: rat, gh3-tre-luc cells, AC50 (uM) modified / 1000, Tox21_110001=Tox21_113486; viability, 1 nM T3 present, 24 h
row,SMILES,CC50 at 24 h
1,CCCCCc1cc(O)c2c(c1)OC(C)(C)c1ccc(C)cc1-2 [Cannabinol],13.4 µM

# Same assay, conditions: rat, gh3-tre-luc cells, AC50 (uM) modified / 1000, Tox21_110001=Tox21_200120; viability, 1 nM T3 present, 24 h
row,SMILES,CC50 at 24 h
1,O=Cc1ccc2c(c1)OCO2 [Piperonal],> 90 µM

# Same assay, conditions: rat, gh3-tre-luc cells, AC50 (uM) modified / 1000, Tox21_110001=Tox21_200987; viability, 1 nM T3 present, 24 h
row,SMILES,CC50 at 24 h
1,C[C@]12CCC(=O)C[C@@H]1CC[C@@H]1[C@@H]2CC[C@]2(C)[C@@H](O)CC[C@@H]12 [5alpha-Dihydrotestosterone],> 90 µM

# Same assay, conditions: rat, gh3-tre-luc cells, AC50 (uM) modified / 1000, Tox21_110001=Tox21_201129; viability, 1 nM T3 present, 24 h
row,SMILES,CC50 at 24 h
1,C=CCOC(=O)c1ccccc1N [Allyl anthranilate],> 90 µM

# Same assay, conditions: rat, gh3-tre-luc cells, AC50 (uM) modified / 1000, Tox21_110001=Tox21_201755; viability, 1 nM T3 present, 24 h
row,SMILES,CC50 at 24 h
1,Cc1cccc(N=Nc2ccc(N(C)C)cc2)c1 [3'-Methyl-4-dimethylaminoazobenzene],72.8 µM

# Same assay, conditions: rat, gh3-tre-luc cells, AC50 (uM) modified / 1000, Tox21_110001=Tox21_202983; viability, 1 nM T3 present, 24 h
row,SMILES,CC50 at 24 h
1,Cc1ccccc1OP(=O)(Oc1ccccc1C)Oc1ccccc1C [Tri-o-cresyl phosphate],63.4 µM

# Same assay, conditions: rat, gh3-tre-luc cells, AC50 (uM) modified / 1000, Tox21_110001=Tox21_302560; viability, 1 nM T3 present, 24 h
row,SMILES,CC50 at 24 h
1,Nc1ccccc1C(=O)Oc1ccc2ccccc2c1 [Naphthalen-2-yl 2-aminobenzoate],> 90 µM

# Same assay, conditions: rat, gh3-tre-luc cells, AC50 (uM) modified / 1000, Tox21_110001=Tox21_303022; viability, 1 nM T3 present, 24 h
row,SMILES,CC50 at 24 h
1,Cc1cccc(N=Nc2ccc(N(C)C)cc2)c1 [3'-Methyl-4-dimethylaminoazobenzene],> 90 µM

# Same assay, conditions: rat, gh3-tre-luc cells, AC50 (uM) modified / 1000, Tox21_110001=Tox21_303655; viability, 1 nM T3 present, 24 h
row,SMILES,CC50 at 24 h
1,C[C@]12CCC(=O)C[C@@H]1CC[C@@H]1[C@@H]2CC[C@]2(C)[C@@H](O)CC[C@@H]12 [5alpha-Dihydrotestosterone],> 60 µM
